The values below come from PMC8199946.

Data set [1] is described as follows: macrolactonisation by intramolecular SN2 of carboxylate on C6 tosylate of GlcNAc derivative, K2CO3 2 equiv. The settings on record: MeCN, 6.0 mM, 75.0 °C.
A short description of data set [2]: macrolactonisation by intramolecular SN2 of carboxylate on C6 sulfonate (tosylate; one brosylate, one chloride) of glucosamine derivative, K2CO3 2 equiv. The settings on record: DMF, 10.0 mM, 75.0 °C.

With `CC(=O)N[C@H]1[C@H]2OCCn3cc(nn3)CCCCCc3cn(nn3)CCC(=O)OC[C@@H](O2)[C@@H](OC(=O)c2ccccc2)[C@@H]1OC(=O)c1ccccc1` [15b -> 16b (DM25)], the ring closure, isolated yield was 71% in data set [1] (from CC(=O)N[C@H]1[C@@H](OCCn2cc(CCCCCc3cn(CCC(=O)O)nn3)nn2)O[C@H](COS(=O)(=O)c2ccc(C)cc2)[C@@H](OC(=O)c2ccccc2)[C@@H]1OC(=O)c1ccccc1, 22-membered ring, 14.0 h) and 88% in data set [2] (from CC(=O)N[C@H]1[C@@H](OCCn2cc(CCCCCc3cn(CCC(=O)O)nn3)nn2)O[C@H](COS(=O)(=O)c2ccc(C)cc2)[C@@H](OC(=O)c2ccccc2)[C@@H]1OC(=O)c1ccccc1, 22-membered ring, 2.0 h).
As for `CC(=O)N[C@H]1[C@H]2OCCn3cc(nn3)CCCCCCCCC(=O)OC[C@@H](O2)[C@@H](OC(=O)c2ccccc2)[C@@H]1OC(=O)c1ccccc1` [8a -> LM28, OBs], in data set [2] (from CC(=O)N[C@H]1[C@@H](OCCn2cc(CCCCCCCCC(=O)O)nn2)O[C@H](COS(=O)(=O)c2ccc(Br)cc2)[C@@H](OC(=O)c2ccccc2)[C@@H]1OC(=O)c1ccccc1, 20-membered ring, 5.0 h), the ring closure, isolated yield stood at 72%.
As for `CC(=O)N[C@H]1[C@H]2OCCCn3cc(nn3)CCCCCCC(=O)OC[C@@H](O2)[C@@H](OC(=O)c2ccccc2)[C@@H]1OC(=O)c1ccccc1` [12b -> 14b (LM36)], the ring closure, isolated yield in data set [2] (from CC(=O)N[C@H]1[C@@H](OCCCn2cc(CCCCCCC(=O)O)nn2)O[C@H](COS(=O)(=O)c2ccc(C)cc2)[C@@H](OC(=O)c2ccccc2)[C@@H]1OC(=O)c1ccccc1, 19-membered ring, 2.0 h) stood at 83%.
Take `CC(=O)N[C@H]1[C@H]2OCCn3cc(nn3)CCCCCCC(=O)OC[C@@H](O2)[C@@H](OC(=O)c2ccccc2)[C@@H]1OC(=O)c1ccccc1` [11b -> 13b (LM26)]: the ring closure, isolated yield in data set [2] (from CC(=O)N[C@H]1[C@@H](OCCn2cc(CCCCCCC(=O)O)nn2)O[C@H](COS(=O)(=O)c2ccc(C)cc2)[C@@H](OC(=O)c2ccccc2)[C@@H]1OC(=O)c1ccccc1, 18-membered ring, 5.0 h) came out at 76%.
For `CC(=O)N[C@H]1[C@H]2OCCCn3cc(nn3)CCCCCCCCC(=O)OC[C@@H](O2)[C@@H](OC(=O)c2ccccc2)[C@@H]1OC(=O)c1ccccc1` [12c -> 14c (LM38)], in data set [2] (from CC(=O)N[C@H]1[C@@H](OCCCn2cc(CCCCCCCCC(=O)O)nn2)O[C@H](COS(=O)(=O)c2ccc(C)cc2)[C@@H](OC(=O)c2ccccc2)[C@@H]1OC(=O)c1ccccc1, 21-membered ring, 2.0 h), the ring closure, isolated yield turned out to be 83%.
For `CC(=O)N[C@H]1[C@H]2OCCCn3cc(nn3)CCCCCc3cn(nn3)CCC(=O)OC[C@@H](O2)[C@@H](OC(=O)c2ccccc2)[C@@H]1OC(=O)c1ccccc1` [15d -> 16d (DM35)], the ring closure, isolated yield in data set [1] (from CC(=O)N[C@H]1[C@@H](OCCCn2cc(CCCCCc3cn(CCC(=O)O)nn3)nn2)O[C@H](COS(=O)(=O)c2ccc(C)cc2)[C@@H](OC(=O)c2ccccc2)[C@@H]1OC(=O)c1ccccc1, 23-membered ring, 15.0 h) was found to be 74%; in data set [2] (from CC(=O)N[C@H]1[C@@H](OCCCn2cc(CCCCCc3cn(CCC(=O)O)nn3)nn2)O[C@H](COS(=O)(=O)c2ccc(C)cc2)[C@@H](OC(=O)c2ccccc2)[C@@H]1OC(=O)c1ccccc1, 23-membered ring, 3.0 h), 78%.
For `CC(=O)N[C@H]1[C@H]2OCCn3cc(nn3)CCCCc3cn(nn3)CCC(=O)OC[C@@H](O2)[C@@H](OC(=O)c2ccccc2)[C@@H]1OC(=O)c1ccccc1` [15a -> 16a (DM24)], the ring closure, isolated yield turned out to be 77% in data set [1] (from CC(=O)N[C@H]1[C@@H](OCCn2cc(CCCCc3cn(CCC(=O)O)nn3)nn2)O[C@H](COS(=O)(=O)c2ccc(C)cc2)[C@@H](OC(=O)c2ccccc2)[C@@H]1OC(=O)c1ccccc1, 21-membered ring, 11.0 h) and 90% in data set [2] (from CC(=O)N[C@H]1[C@@H](OCCn2cc(CCCCc3cn(CCC(=O)O)nn3)nn2)O[C@H](COS(=O)(=O)c2ccc(C)cc2)[C@@H](OC(=O)c2ccccc2)[C@@H]1OC(=O)c1ccccc1, 21-membered ring, 4.0 h).
On to `CC(=O)N[C@H]1[C@H]2OCCCn3cc(nn3)CCCCc3cn(nn3)CCC(=O)OC[C@@H](O2)[C@@H](OC(=O)c2ccccc2)[C@@H]1OC(=O)c1ccccc1` [15c -> 16c (DM34)], for which the ring closure, isolated yield in data set [1] (from CC(=O)N[C@H]1[C@@H](OCCCn2cc(CCCCc3cn(CCC(=O)O)nn3)nn2)O[C@H](COS(=O)(=O)c2ccc(C)cc2)[C@@H](OC(=O)c2ccccc2)[C@@H]1OC(=O)c1ccccc1, 22-membered ring, 14.0 h) worked out at 78%; in data set [2] (from CC(=O)N[C@H]1[C@@H](OCCCn2cc(CCCCc3cn(CCC(=O)O)nn3)nn2)O[C@H](COS(=O)(=O)c2ccc(C)cc2)[C@@H](OC(=O)c2ccccc2)[C@@H]1OC(=O)c1ccccc1, 22-membered ring, 2.0 h) it was 85%.
As to `CC(=O)N[C@H]1[C@H]2OCCn3cc(nn3)CCCCCCCCC(=O)OC[C@@H](O2)[C@@H](OC(=O)c2ccccc2)[C@@H]1OC(=O)c1ccccc1` [8c -> LM28 (13c)], the ring closure, isolated yield in data set [1] (from CC(=O)N[C@H]1[C@@H](OCCn2cc(CCCCCCCCC(=O)O)nn2)O[C@H](COS(=O)(=O)c2ccc(C)cc2)[C@@H](OC(=O)c2ccccc2)[C@@H]1OC(=O)c1ccccc1, 20-membered ring, 6.0 h) amounted to 77%.
For `CO[C@H]1O[C@@H]2COC(=O)CCCCCCCCc3cn(nn3)CC(=O)N[C@@H]1[C@@H](OC(=O)c1ccccc1)[C@@H]2OC(=O)c1ccccc1` [21 -> 22 (C2ML)], in data set [2] (from CO[C@H]1O[C@H](COS(=O)(=O)c2ccc(C)cc2)[C@@H](OC(=O)c2ccccc2)[C@H](OC(=O)c2ccccc2)[C@H]1NC(=O)Cn1cc(CCCCCCCCC(=O)O)nn1, 21-membered ring, 2.0 h), the ring closure, isolated yield turned out to be 80%.
On to `CC(=O)N[C@H]1[C@H]2OCCn3cc(nn3)CCCCCCCCC(=O)OC[C@@H](O2)[C@@H](OC(=O)c2ccccc2)[C@@H]1OC(=O)c1ccccc1` [8c -> 13c (LM28), OTs], for which the ring closure, isolated yield in data set [2] (from CC(=O)N[C@H]1[C@@H](OCCn2cc(CCCCCCCCC(=O)O)nn2)O[C@H](COS(=O)(=O)c2ccc(C)cc2)[C@@H](OC(=O)c2ccccc2)[C@@H]1OC(=O)c1ccccc1, 20-membered ring, 3.0 h) is 82%.
In the case of `CC(=O)N[C@H]1[C@H]2OCCn3cc(nn3)CCCCCCCCC(=O)OC[C@@H](O2)[C@@H](OC(=O)c2ccccc2)[C@@H]1OC(=O)c1ccccc1` [8b -> LM28, Cl], the ring closure, isolated yield in data set [2] (from CC(=O)N[C@H]1[C@@H](OCCn2cc(CCCCCCCCC(=O)O)nn2)O[C@H](CCl)[C@@H](OC(=O)c2ccccc2)[C@@H]1OC(=O)c1ccccc1, 20-membered ring, 5.0 h) was found to be 67%.
For the molecule `CC(=O)N[C@H]1[C@H]2OCCCn3cc(nn3)CCCCC(=O)OC[C@@H](O2)[C@@H](OC(=O)c2ccccc2)[C@@H]1OC(=O)c1ccccc1` [12a -> 14a (LM34)], the ring closure, isolated yield in data set [2] (from CC(=O)N[C@H]1[C@@H](OCCCn2cc(CCCCC(=O)O)nn2)O[C@H](COS(=O)(=O)c2ccc(C)cc2)[C@@H](OC(=O)c2ccccc2)[C@@H]1OC(=O)c1ccccc1, 17-membered ring, 2.0 h) was 88%.
As to `CC(=O)N[C@H]1[C@H]2OCCn3cc(nn3)CCCCC(=O)OC[C@@H](O2)[C@@H](OC(=O)c2ccccc2)[C@@H]1OC(=O)c1ccccc1` [11a -> 13a (LM24)], the ring closure, isolated yield in data set [2] (from CC(=O)N[C@H]1[C@@H](OCCn2cc(CCCCC(=O)O)nn2)O[C@H](COS(=O)(=O)c2ccc(C)cc2)[C@@H](OC(=O)c2ccccc2)[C@@H]1OC(=O)c1ccccc1, 16-membered ring, 2.0 h) is 88%.
For `CO[C@H]1O[C@@H]2COC(=O)CCn3cc(nn3)CCCCc3cn(nn3)CC(=O)N[C@@H]1[C@@H](OC(=O)c1ccccc1)[C@@H]2OC(=O)c1ccccc1` [23 -> 24 (C2DLM)], the ring closure, isolated yield in data set [2] (from CO[C@H]1O[C@H](COS(=O)(=O)c2ccc(C)cc2)[C@@H](OC(=O)c2ccccc2)[C@H](OC(=O)c2ccccc2)[C@H]1NC(=O)Cn1cc(CCCCc2cn(CCC(=O)O)nn2)nn1, 22-membered ring, 2.0 h) was found to be 77%.
